Assay results as given in US10934310B2, “Inhibitors of Bruton's tyrosine kinase and method of their use” (JANSSEN PHARMACEUTICA NV, priority 2015, dated 2021).

The molecules below were run against unphosphorylated-BTK kinase domain (UP-BTK), GST-tagged human BTK (389-659aa) (Homo sapiens (Human), UniProt Q06187) (assay: BTK Kinase Lanthascreen Binding Assay). Settings: Lanthascreen binding, 60 minutes incubation; pIC50 = negative log of the IC50 in molar.
Chain of unphosphorylated-BTK kinase domain (UP-BTK), GST-tagged human BTK (389-659aa) (Q06187 389-659): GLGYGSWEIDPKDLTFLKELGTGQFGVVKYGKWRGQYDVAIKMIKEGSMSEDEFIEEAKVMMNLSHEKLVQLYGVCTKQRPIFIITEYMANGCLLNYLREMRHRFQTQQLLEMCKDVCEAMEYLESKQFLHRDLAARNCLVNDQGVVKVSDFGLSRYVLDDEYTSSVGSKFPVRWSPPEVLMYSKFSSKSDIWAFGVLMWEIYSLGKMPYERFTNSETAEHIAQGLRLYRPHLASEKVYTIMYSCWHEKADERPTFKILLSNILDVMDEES
Procedure: BTK Kinase Lanthascreen Binding Assay:
A BTK kinase lanthascreen binding assay monitors compound binding to unphosphorylated-BTK kinase domain (UP-BTK), by competing with a fluorescent labeled tracer. […] Data were analyzed using Xlfit™ version 5.3 from ID Business Solutions (Guildford), Microsoft Excel add-in. pIC50 refers to the negative log of the IC50 in molar.
`Cc1cc(OCC(C)C)ncc1N1C(=O)Nc2c(C(=O)N[C@@H]3CCC[C@@H]3N)sc3nccc1c23` (single isomer, unassigned) [Example 397, N-((1R,2S)-2-Aminocyclopentyl)-5-(*S)-(6-isobutoxy-4-methylpyridin-3-yl)-4-oxo-4,5-dihydro-3H-1-thia-3,5,8-triazaacenaphthylene-2-carboxamide] was tested, and the “BTK_I_binding pIC50” value was 6.62. In the case of `CCC(=O)N[C@H]1CC[C@H](NC(=O)c2sc3nccc4c3c2NC(=O)N4c2cnc(Oc3ccccc3)cc2C)C1` (single isomer, unassigned) [Example 399, 5-(*S)-(4-Methyl-6-phenoxypyridin-3-yl)-4-oxo-N-((1S,3S)-3-propionamidocyclopentyl)-4,5-dihydro-3H-1-thia-3,5,8-triazaacenaphthylene-2-carboxamide], the “BTK_I_binding pIC50” value is reported as 6.51. `CC(=O)N[C@H]1CCC[C@H](NC(=O)c2sc3nccc4c3c2NC(=O)N4c2cnc(Oc3ccccc3)cc2C)C1` (single isomer, unassigned) [Example 400, N-((1S,3S)-3-Acetamidocyclohexyl)-5-(*S)-(4-methyl-6-phenoxypyridin-3-yl)-4-oxo-4,5-dihydro-3H-1-thia-3,5,8-triazaacenaphthylene-2-carboxamide] was tested, and the “BTK_I_binding pIC50” value was 6.46. With `CCC(=O)N[C@H]1CCC[C@H](NC(=O)c2sc3nccc4c3c2NC(=O)N4c2cnc(Oc3ccccc3)cc2C)C1` (single isomer, unassigned) [Example 402, 5-(*S)-(4-Methyl-6-phenoxypyridin-3-yl)-4-oxo-N-((1S,3S)-3-propionamidocyclohexyl)-4,5-dihydro-3H-1-thia-3,5,8-triazaacenaphthylene-2-carboxamide] the “BTK_I_binding pIC50” value was 6.38. With `CC(=O)N[C@H]1CC[C@@H](NC(=O)c2sc3nccc4c3c2NC(=O)N4c2cnc(Oc3ccccc3)cc2C)C1` (single isomer, unassigned) [Example 403, N-((1R,3S)-3-Acetamidocyclopentyl)-5-(*S)-(4-methyl-6-phenoxypyridin-3-yl)-4-oxo-4,5-dihydro-3H-1-thia-3,5,8-triazaacenaphthylene-2-carboxamide] the “BTK_I_binding pIC50” value was 6.26. In the case of `C=CC(=O)N[C@@H]1CCCC[C@H]1NC(=O)c1sc2nccc3c2c1NC(=O)N3c1cnc(CC(C)C)cc1C` (single isomer, unassigned) [Example 404, N-((1R,2R)-2-Acrylamidocyclohexyl)-5-(*S)-(6-isobutyl-4-methylpyridin-3-yl)-4-oxo-4,5-dihydro-3H-1-thia-3,5,8-triazaacenaphthylene-2-carboxamide], the “BTK_I_binding pIC50” value is reported as 6.21. For `Cc1cc(OCC(C)C)ncc1N1C(=O)Nc2c(C(=O)N[C@@H]3CC[C@H](N)C3)sc3nccc1c23` (single isomer, unassigned) [Example 405, N-((1R,3S)-3-Aminocyclopentyl)-5-(*S)-(6-isobutoxy-4-methylpyridin-3-yl)-4-oxo-4,5-dihydro-3H-1-thia-3,5,8-triazaacenaphthylene-2-carboxamide], the “BTK_I_binding pIC50” value was 6.16. In the case of `CC(=O)NC1CCC[C@H](NC(=O)c2sc3nccc4c3c2NC(=O)N4c2cnc(Oc3ccccc3)cc2C)C1` (single isomer, unassigned) [Example 407, N-((1S,3R)-3-Acetamidocyclohexyl)-5-(*S)-(4-methyl-6-phenoxypyridin-3-yl)-4-oxo-4,5-dihydro-3H-1-thia-3,5,8-triazaacenaphthylene-2-carboxamide], the “BTK_I_binding pIC50” value is reported as 6.05. `CC(=O)NC1CCC[C@@H](NC(=O)c2sc3nccc4c3c2NC(=O)N4c2cnc(Oc3ccccc3)cc2C)C1` (single isomer, unassigned) [Example 422, N-((1R,3R)-3-Acetamidocyclohexyl)-5-(*S)-(4-methyl-6-phenoxypyridin-3-yl)-4-oxo-4,5-dihydro-3H-1-thia-3,5,8-triazaacenaphthylene-2-carboxamide] was tested, and the “BTK_I_binding pIC50” value was 7.72.

Same assay, conditions: read-out: BTK_I_binding pIC50 (converted)
`CCC(=O)N[C@H]1CC[C@H](NC(=O)c2sc3nccc4c3c2NC(=O)N4c2ccc(Oc3ccccc3)nc2C)C1` (single isomer, unassigned) [Example 409, 5-(*S)-(2-Methyl-6-phenoxypyridin-3-yl)-4-oxo-N-((1S,3S)-3-propionamidocyclopentyl)-4,5-dihydro-3H-1-thia-3,5,8-triazaacenaphthylene-2-carboxamide] showed an IC50 greater than 1 µM. In the case of `CC(=O)N[C@H]1CC[C@H](NC(=O)c2sc3nccc4c3c2NC(=O)N4c2ccc(Oc3ccccc3)nc2C)C1` (single isomer, unassigned) [Example 410, N-((1S,3S)-3-Acetamidocyclopentyl)-5-(*S)-(2-methyl-6-phenoxypyridin-3-yl)-4-oxo-4,5-dihydro-3H-1-thia-3,5,8-triazaacenaphthylene-2-carboxamide], the IC50 is reported as greater than 1 µM. `C=CC(=O)N[C@@H]1CCC[C@H](NC(=O)c2sc3nccc4c3c2NC(=O)N4c2ccc(Oc3ccccc3)nc2C)C1` (single isomer, unassigned) [Example 411, N-((1S,3R)-3-Acrylamidocyclohexyl)-5-(*S)-(2-methyl-6-phenoxypyridin-3-yl)-4-oxo-4,5-dihydro-3H-1-thia-3,5,8-triazaacenaphthylene-2-carboxamide] was tested, and the IC50 was greater than 1 µM. `CCC(=O)N[C@@H]1CCC[C@H](NC(=O)c2sc3nccc4c3c2NC(=O)N4c2ccc(Oc3ccccc3)nc2C)C1` (single isomer, unassigned) [Example 412, 5-(*S)-(2-Methyl-6-phenoxypyridin-3-yl)-4-oxo-N-((1S,3R)-3-propionamidocyclohexyl)-4,5-dihydro-3H-1-thia-3,5,8-triazaacenaphthylene-2-carboxamide] was tested, and the IC50 was greater than 1 µM. `CC(=O)N[C@@H]1CCC[C@H](NC(=O)c2sc3nccc4c3c2NC(=O)N4c2ccc(Oc3ccccc3)nc2C)C1` (single isomer, unassigned) [Example 413, N-((1S,3R)-3-Acetamidocyclohexyl)-5-(*S)-(2-methyl-6-phenoxypyridin-3-yl)-4-oxo-4,5-dihydro-3H-1-thia-3,5,8-triazaacenaphthylene-2-carboxamide] gave an IC50 greater than 1 µM. For `Cc1nc(Oc2ccccc2)ccc1N1C(=O)Nc2c(C(=O)N[C@H]3CCC[C@@H](N)C3)sc3nccc1c23` (single isomer, unassigned) [Example 414, N-((1S,3R)-3-Aminocyclohexyl)-5-(*S)-(2-methyl-6-phenoxypyridin-3-yl)-4-oxo-4,5-dihydro-3H-1-thia-3,5,8-triazaacenaphthylene-2-carboxamide], the IC50 was greater than 1 µM. Molecule `Cc1nc(Oc2ccccc2)ccc1N1C(=O)Nc2c(C(=O)N[C@H]3CC[C@H](N)C3)sc3nccc1c23` (single isomer, unassigned) [Example 415, N-((1S,3S)-3-Aminocyclopentyl)-5-(*S)-(2-methyl-6-phenoxypyridin-3-yl)-4-oxo-4,5-dihydro-3H-1-thia-3,5,8-triazaacenaphthylene-2-carboxamide] has an IC50 greater than 1 µM. `CCC(=O)N[C@H]1CCC[C@H](NC(=O)c2sc3nccc4c3c2NC(=O)N4c2cnc(Oc3ccccc3)cc2C)C1` (single isomer, unassigned) [Example 416, 5-(*S)-(4-Methyl-6-phenoxypyridin-3-yl)-4-oxo-N-((1S,3R)-3-propionamidocyclohexyl)-4,5-dihydro-3H-1-thia-3,5,8-triazaacenaphthylene-2-carboxamide] showed an IC50 greater than 1 µM.
